One compound from US20110093959A1, “CRYPTOTIS PARVA SCREENING MODEL FOR ANTIEMETIC POTENTIAL” (priority 2008, published 2011) can be followed below.

Assay [1] concerns SP-induced emesis in the Least Shrew. Briefly: Antagonist interaction study against SP (50 mg/kg, i.p.)-induced emesis. As to conditions: antagonist 10 mg/kg i.p., 30 min before SP 50 mg/kg i.p. The assay is classed as in vivo, Cryptotis parva. The text has this: The present protocols were based upon preliminary studies as well as published findings in the Least Shrew. Darmani, 2001a; Darmani et al., 69 Pharmacol. Biochem. Behay. 239-49 (2001b). On the test day, the shrews were allowed to acclimate to the test laboratory for at least one hour prior to experimentation. To habituate the animals to the test environment, each shrew was randomly selected and transferred to a 20 cm×18 cm×21 cm clean clear plastic cage and offered four mealworms (Tenebrio sp.) 30 min prior to experimentation. […]
For the above drug interaction studies, different doses (i.p.) of either CP99,994 (0, 5, 10, and 20 mg/kg, n=10-14 shrews per group); L733060 (0, 5, 10, and 20 mg/kg, n=10-14 shrews per group), GR159897 (0 mg/kg and 20 mg/kg, n=8 per group) or SB218795 (0 or 20 mg/kg, n=7-8 per group) were administered to different groups of shrews 30 min prior to injection of an emetic dose (5 mg/kg, i.p.) of the NK1-receptor agonist GR73632. Emesis and scratchings were recorded for 30 min immediately following GR73632 administration as described above. […]
The data on the frequency of emesis and scratchings were analyzed by the Kruskal-Wallis (KW) nonparametric one-way analysis of variance (ANOVA) and post hoc analysis by Dunn's multiple comparisons test or Mann-Whitney test. […]

Assay [2] has as its system GR73632-induced emesis and scratching in the Least Shrew. Nature of the assay: Antagonist interaction study against GR73632 (5 mg/kg, i.p.)-induced emesis and scratching. The assay is classed as in vivo, Cryptotis parva. The text has this:
The present protocols were based upon preliminary studies as well as published findings in the Least Shrew. Darmani, 2001a; Darmani et al., 69 Pharmacol. Biochem. Behay. 239-49 (2001b). On the test day, the shrews were allowed to acclimate to the test laboratory for at least one hour prior to experimentation. To habituate the animals to the test environment, each shrew was randomly selected and transferred to a 20 cm×18 cm×21 cm clean clear plastic cage and offered four mealworms (Tenebrio sp.) 30 min prior to experimentation.
The latter doses of SP and GR73632 were chosen for subsequent antagonist interaction studies to pharmacologically characterize the role of NK1 receptors in the mediation of induced emesis by the use of: (1) two selective neurokinin NK1 receptor antagonists (CP99,994 and L733060) (Watson et al., 115 Br. J. Phramacol. 84-94 (1995); Guiard et al., 89 J. Neurochem. 54-63 (2004)); (2) an NK2 receptor antagonist (GR159897) (Beresford et al., 272 Eur. J. Pharmacol. 241-48 (1995)); and (3) an NK3 receptor antagonist (SB218795) (Salthun-Lassalle et al., 1995).
For the above drug interaction studies, different doses (i.p.) of either CP99,994 (0, 5, 10, and 20 mg/kg, n=10-14 shrews per group); L733060 (0, 5, 10, and 20 mg/kg, n=10-14 shrews per group), GR159897 (0 mg/kg and 20 mg/kg, n=8 per group) or SB218795 (0 or 20 mg/kg, n=7-8 per group) were administered to different groups of shrews 30 min prior to injection of an emetic dose (5 mg/kg, i.p.) of the NK1-receptor agonist GR73632. Emesis and scratchings were recorded for 30 min immediately following GR73632 administration as described above. The antiemetic effect of CP99,994 (0, 5, and 10 mg/kg, n=9-10 animals per group) was also investigated in a similar manner against SP (50 mg/kg, i.p.)-induced emesis.
The data on the frequency of emesis and scratchings were analyzed by the Kruskal-Wallis (KW) nonparametric one-way analysis of variance (ANOVA) and post hoc analysis by Dunn's multiple comparisons test or Mann-Whitney test. A P value of <0.05 was necessary to attain statistical significance. The incidence of emesis (number of shrews vomiting) was analyzed by the Fisher's exact test to determine whether there were differences between groups. When appropriate, pairwise comparisons were also made by this method. Two-way analysis of variance using the Kruskal-Wallis or Fisher's exact tests were initially utilized to respectively analyze the dose-response results of GR73632 on emesis and scratching behaviors, and percentage of shrews vomiting in saporin- and corresponding saline-pretreated control shrews. […] For some emesis data, the two-tailed Mann-Whitney test was used. The SP tissue concentration data were analyzed by a one-way ANOVA followed by Dunnett's t test as post hoc analysis. Fos-IR was quantified by counting immunopositive nuclei within each hemisection containing the region of interest (ROI). The number of nuclei was averaged across sections with the ROI for each animal, and the group mean and standard error obtained.

As to `COc1ccccc1CN[C@H]1CCCN[C@H]1c1ccccc1` (relative stereo) [CP99,994, (2S, 3S)-Cis-3 (2-methoxybenzylamino-2-phenylpiperidine)], in assay [1], the “attenuation of the frequency of SP-induced emesis” value is given as 84% and the “shrews protected from SP-induced emesis” value was 70%. For the same compound, in assay [2] (antagonist 5 mg/kg i.p.), the “reduction in frequency of GR73632-induced emesis” value (shortened to “reduction in frequency”) turned out to be 61% and the “reduction in percentage of shrews vomiting in response to GR73632” value (“reduction in percentage” below) worked out at 2.9%. In assay [2] (antagonist 10 mg/kg i.p.), the “reduction in frequency” value is reported as 87% and the “reduction in percentage” value came out at 60%. Also, in assay [2] (antagonist 20 mg/kg i.p.), the “reduction in frequency” value is 97% and the “reduction in percentage” value is 73%. Further, the “reduction in the frequency of scratching” value in assay [2] (antagonist 5, 10, and 20 mg/kg, failed to attain significance) is “up to 49%”. Further, the “onset of first emesis induced by GR73632” value in assay [2] (at highest tested effective antiemetic doses) is “only delayed the onset of first emesis”.
